# In US7759349B2, “Control of parasites in animals by the use of imidazo[1,2-b]pyridazine derivatives” (Schering-Plough Animal Health Corporation, priority 2003, dated 2010):
# Tested on: Haemonchus contortus
# Assay: Haemonchus contortus larvacidal assay: NemaTOX H. contortus dose response (larval development, eggs to L3)
# Format: cell-based
# Details: Haemonchus contortus, 144 h; Table 1; concentration required to inhibit development in 99% of the nematode larvae; eggs on agar to L3 stage (6 days); two-fold dilutions, 0.024 to 50 μg/ml; read-out: LD99
# Experimental: Haemonchus Contortus Larvacidal Assay: NemaTOX H.contortus Dose Response (00/0510)
# Effect on larval development is determined in the assay described by Gill et al. (International Journal of Parasitology, 1995, 25, 463-470). Briefly, in this assay nematode eggs were applied to the surface of an agar matrix containing the test compound and then allowed to develop through to the L3, infective stage (6 days)
# The wells for each dilution of every compound (from highest to lowest concentration) were inspected to determine the well number corresponding to the lowest concentration at which development was inhibited in 99% of the nematode larvae present. As the well numbers correspond to a two-fold serial dilution of each compound, a titre (dilution factor) is generated as 2^n-1, where n is the well number. By dividing the highest concentration tested by the titre an LD99 value can be obtained, representing the concentration required to inhibit development in 99% of the nematode larvae present.
# The compounds supplied as solid and viscous liquids were dissolved in DMSO. Twelve serial 1/2 dilutions in DMSO solution were prepared from the stock solution, each of which was then diluted 1/5 with water. Aliquots (10 μl) of each dilution were transferred to the bioassay plates to give a final concentration range of 0.024 to 50 μg/ml.
# In Tables 1, 2 and 3 the Haemonchus contortus LD99 values for compounds in accordance with the present invention are listed, measured in micrograms/mL.
row,SMILES,IC99 [µg/mL]
1,Cc1c(-c2cccs2)nc2ccc(OCC3CC3)nn12 [Compound 44],0.375

# Same assay, conditions: Haemonchus contortus, 144 h; Table 3; concentration required to inhibit development in 99% of the nematode larvae; eggs on agar to L3 stage (6 days); two-fold dilutions, 0.024 to 50 μg/ml; read-out: LD99
row,SMILES,IC99 [µg/mL]
1,"CCCOc1ccc2nc3c(n2n1)CCc1cc(OC)ccc1-3 [Compound 121, 3-Methoxy-8-propoxy-5,6-dihydro-6b,7,11-triaza-benzo[a]fluorene]",0.203
2,"CCCOc1ccc2nc3c(n2n1)Cc1ccccc1-3 [Compound 123, 3-Propoxy-5H-4,4a, 10-triaza-indeno[2,1-a]indene]",0.469

# Same assay, conditions: Table 1; concentration required to inhibit development in 99% of the nematode larvae; eggs on agar to L3 stage (6 days); two-fold dilutions, 0.024 to 50 μg/ml
row,SMILES,LD99 [micrograms/mL]
1,CCCOc1nn2cc(-c3ccc(OCC)cc3)nc2c2ccccc12 [Compound 62],0.625
2,CCCSc1ccc2nc(-c3ccc4c(c3)OCO4)cn2n1 [Compound 8],0.813
3,COc1cccc(-c2nc3ccc(SC)nn3c2OC)c1 [Compound 15],2.75
4,COc1ccc(CSc2ccc3nc(-c4cccs4)c(C)n3n2)cc1 [Compound 47],7.5
5,CCOc1ccc(-c2cn3nc(OC4CCCC4)ccc3n2)cc1 [Compound 31],0.875
6,CCCOc1ccc2nc(-c3ccc(Cl)cc3)cn2n1 [Compound 11],3.75
7,COc1ccc(-c2cn3nc(SC(C)C)ccc3n2)cc1 [Compound 52],0.938
8,COc1ccc(-c2nc3ccc(-c4ccccc4)nn3c2C)cc1 [Compound 36],0.8123
9,COc1ccc(-c2cn3nc(SCC(C)C)ccc3n2)cc1OC [Compound 57],1.375
10,COc1c(-c2ccccc2)nc2ccc(Sc3ccccc3)nn12 [Compound 21],>15.0
11,CCOc1ccc2nc(-c3ccc(C)cc3)cn2n1 [Compound 2],0.875
12,CCCSc1ccc2nc(-c3cc(OC)c(OC)c(OC)c3)cn2n1 [Compound 14],>15.0
13,CCCOc1ccc2nc(-c3ccc(F)cc3)cn2n1 [Compound 55],0.813
14,CCCOc1ccc2nc(-c3ccc(OCC)cc3)c(Br)n2n1 [Compound 40],0.344
15,CCOc1ccc(-c2cn3nc(SCc4ccc(Cl)cc4)ccc3n2)cc1 [Compound 42],3
16,CCCOc1ccc2nc(-c3ccc(OC)cc3)c(C)n2n1 [Compound 37],0.344
17,COc1c(-c2ccc3cc(C)ccc3c2)nc2ccc(SC)nn12 [Compound 9],>15.0
18,CCCSc1ccc2nc(-c3cccc(OC)c3)cn2n1 [Compound 13],0.63
19,CCCOc1ccc2nc(-c3ccc(Cl)s3)cn2n1 [Compound 34],0.188
20,CCCOc1ccc2nc(-c3ccc4c(c3)OCO4)cn2n1 [Compound 16],0.23
21,CCCCCCSc1ccc2nc(-c3cccs3)c(C)n2n1 [Compound 46],6.5
22,CCCOc1ccc2nc(-c3ccc(OC)c(OC)c3)cn2n1 [Compound 26],1.3
23,CCCOc1ccc2nc(-c3cccc(OC)c3)cn2n1 [Compound 28],0.23

row,SMILES,LD99 [micrograms/mL]
1,COc1ccc2nc(-c3ccc(C)cc3)cn2n1 [Compound 1],3.75
2,COc1cccc(Sc2ccc3nc(-c4ccc5c(c4)OCO5)cn3n2)c1 [Compound 19],>15.0
3,CSc1ccc2nc(-c3ccccc3)cn2n1 [Compound 4],2.75
4,CCOc1ccc(-c2nc3ccc(OCC4CC4)nn3c2Br)cc1 [Compound 39],2.75
5,COc1ccc(-c2cn3nc(OC(C)C)ccc3n2)cc1OC [Compound 58],15
6,CCCSc1ccc2nc(-c3ccc(OCC)cc3)cn2n1 [Compound 30],0.38
7,COc1ccc(-c2cn3nc(OC)ccc3n2)cc1 [Compound 18],3
8,COc1c(-c2ccccc2)nc2ccc(SC)nn12 [Compound 3],3
9,CCSc1ccc2nc(-c3ccccc3)c(OC)n2n1 [Compound 24],7.5
10,Cc1c(-c2cccs2)nc2ccc(Br)nn12 [Compound 45],6
11,CCOc1ccc(-c2cn3nc(-c4ccccc4)ccc3n2)cc1 [Compound 35],10
12,CCOc1ccc(-c2cn3nc(OCC)ccc3n2)cc1 [Compound 60],0.172
13,CCOc1ccc(-c2cn3nc(SC(C)C)ccc3n2)cc1 [Compound 50],0.875
14,CCCCOc1ccc2nc(-c3ccc(OCCC)cc3)cn2n1 [Compound 53],0.344
15,COc1ccc(-c2nc3ccc(OCc4ccccc4)nn3c2OC)cc1 [Compound 17],>15.0
16,CCCSc1ccc2nc(-c3ccccc3)c(OC)n2n1 [Compound 22],>15.0
17,c1ccc(Sc2ccc3nc(-c4ccccc4)cn3n2)cc1 [Compound 5],1.625
18,CCOc1ccc(-c2cn3nc(SCc4ccc(OC)cc4)ccc3n2)cc1 [Compound 41],11
19,CCCOc1ccc2nc(-c3ccc(OCC)cc3)cn2n1 [Compound 27],0.1
20,CSc1ccc2nc(-c3ccc4c(c3)OCO4)cn2n1 [Compound 6],3.25
21,c1ccc(COc2ccc3nc(-c4ccccc4)cn3n2)cc1 [Compound 10],5.5
22,CCc1ccc(-c2cn3nc(OCC4CC4)ccc3n2)cc1 [Compound 56],0.0781

# Same assay, conditions: Table 2; concentration required to inhibit development in 99% of the nematode larvae; eggs on agar to L3 stage (6 days); two-fold dilutions, 0.024 to 50 μg/ml
row,SMILES,LD99 [micrograms/mL]
1,CCCOc1nn2cc(-c3ccc(OCCO)cc3)nc2c2ccccc12 [Compound 120],1.38
2,COCCOc1ccc(-c2cn3nc(SCC(C)C)ccc3n2)cc1 [Compound 108],0.313
3,CCCOc1ccc2nc(-c3ccc(OCCOC)c(OC)c3)c(I)n2n1 [Compound 113],5
4,CCCOc1ccc2nc(-c3cccc(OCCOC)c3)c(C)n2n1 [Compound 94],1.88
5,CCCOc1ccc2nc(-c3ccc(OCCOC)c(OC)c3)cn2n1 [Compound 66],0.81
6,COCCOc1ccc(-c2cn3nc(OC(C)C)ccc3n2)cc1OC [Compound 107],7
7,COCCOc1ccc(-c2cn3nc(N4CCCC4)ccc3n2)cc1 [Compound 70],3.25
8,COCCOc1cccc(-c2nc3ccc(SC(C)C)nn3c2C)c1 [Compound 103],7
9,COCCOc1cccc(-c2nc3ccc(Br)nn3c2C)c1 [Compound 93],11
10,CCCSc1ccc2nc(-c3ccc(OCCOC)c(OC)c3)cn2n1 [Compound 68],0.44
11,CCOCCOc1ccc(-c2cn3nc(OCC4CC4)ccc3n2)cc1 [Compound 117],0.0391
12,OCCOc1ccc(-c2cn3nc(OC4CCCC4)ccc3n2)cc1 [Compound 74],7
13,CCCOc1ccc2nc(-c3ccc(OCCOCC)cc3)cn2n1 [Compound 116],0.109
14,CCOc1ccc2nc(-c3ccc(OCCOC)c(OC)c3)cn2n1 [Compound 118],1.25
15,COCCOc1ccc(-c2cn3ncccc3n2)cc1 [Compound 69],15
16,CCCOc1ccc2nc(-c3ccc(OCCOC)cc3)c(C)n2n1 [Compound 84],0.109
17,COCCOc1ccc(-c2nc3ccc(Cl)nn3c2C)cc1Br [Compound 86],3
18,COCCOc1cccc(-c2nc3ccc(OCC4CC4)nn3c2C)c1 [Compound 95],0.875
19,COCCOc1ccc(-c2cn3nc(OCCOC)ccc3n2)cc1 [Compound 64],6
20,CCCCSc1ccc2nc(-c3ccc(OCCOCC)cc3)cn2n1 [Compound 115],0.219
21,COCCOc1cccc(-c2nc3ccc(SCC(C)C)nn3c2C)c1 [Compound 102],12
22,CCCCOc1ccc2nc(-c3ccc(OCCOC)c(OC)c3)cn2n1 [Compound 106],0.313
23,COCCOc1cccc(-c2nc3ccc(OC(C)C)nn3c2C)c1 [Compound 104],5
24,COCCOc1ccc(-c2cn3nc(OC4CCCC4)ccc3n2)cc1 [Compound 73],1.875
25,CCCCSc1ccc2nc(-c3ccc(OCCOC)cc3)cn2n1 [Compound 99],0.0938
26,CCCCOc1ccc2nc(-c3ccc(OCCOC)cc3)cn2n1 [Compound 111],0.219
27,CCCSc1ccc2nc(-c3ccc(OCCOC)c(OC)c3)c(Br)n2n1 [Compound 89],0.75
28,CCCOc1ccc2nc(-c3ccc(OCCOC)cc3)c(Br)n2n1 [Compound 81],0.0137
